Results taken from publication PMC8164609 (Environmental Science and Pollution Research International, 2021).
Where “and” joins values, the source holds several entries; their conditions need not be identical. Equal entries are not always repeated. Where two headings read alike, the source gives them in different places.

Legend:
MCF-7 cells [1] = experiment: In vitro micronucleus assay for cytokinesis block; type: cell-based, human; conditions: 24 h; for Micronuclei per 1000 binucleated cells, Replicates: single replicate values
Description: The genotoxicity of EEDCs to MCF-7 cells was assessed by the in vitro micronucleus assay for cytokinesis block. MCF-7 cells were seeded at a density of 5×10^4/well in a 12-well plate in SF medium containing DMEM, 7% charcoal-stripped FBS and 4 mM L-glutamine. These cells were treated with test compounds or the positive control for 24 h. Then, cells were washed twice with PBS, treated with 2 μg/mL cytochalasin B, and incubated for 1.5–2 normal cell cycle lengths (~24 h for MCF-7 cells). Finally, cells were washed with PBS and fixed with 4% paraformaldehyde for 10–15 min (in PBS, pH 6.9). Before staining cells with 5% Giemsa stain for 20 min, plates were washed again with PBS and dried. The frequency of micronuclei per 1000 binucleated cells was counted for each well, and the ratio of micronucleus frequency in treated vs. control cells was defined as fold induction. Cells in mitosis were omitted.

S. cerevisiae BMA64/luc = conditions: values higher than 2 are considered toxic
Description: (§1) Yeast bioluminescent assay was performed as previously described (Omoruyi and Pohjanvirta [2018]). Two recombinant yeasts, Saccharomyces cerevisiae BMAEREluc/ERα and Saccharomyces cerevisiae BMA64/luc, were kindly provided by Dr. Johanna Rajasärkkä, Department of Food and Environmental Sciences, Faculty of Agriculture and Forestry, University of Helsinki. In the BMAEREluc/ERα, human ERα is expressed. After estrogen-like chemicals bind to ERα, the dimerized receptor binds to a specific DNA sequence called estrogen response element (ERE), in the promotor region of the luc reporter gene, inducing its expression. In BMA64/luc, the luciferase is expressed constitutively, and this strain can be used for the evaluation of cytotoxicity of test compounds.
Both strains were revived from glycerol stock solution on agar and broth forms of synthetic complete medium supplemented with the required amino acids. After the absence of contamination was confirmed by observing single colonies’ morphology on agar plate, approximately 10 μL of cultured yeasts in broth was transferred to 4 mL of synthetic defined (SD) medium supplemented with the required amino acids. The culture was incubated at 30°C on a shaker incubator (200 rpm). After 24-h incubation, the culture was diluted with SD broth to reach the optimal density (OD600) of 0.4 CFU/mL. Subsequently, the culture was incubated in the same incubation condition until the OD600 reached 0.6–0.7 CFU/mL.
(§2) Next, 90 μL of cultured yeasts containing 1:20 luciferin solution (0.042 g luciferin dissolved in 9.75 mL of 0.2 M trisodium citrate, and 5.525 mL of 0.2 M citrate, pH 5) was pipetted into every well of a white 96-well flat-bottom plate, and 10 μL of test compounds in a defined concentration range (diluted in 5% EtOH) were added. The plate was incubated at 30°C for approximately 2.5 h, and was then shaken briefly. The luminescence measurement was performed with Luminoskan Ascent microplate luminometer (Thermo Labsystems) using the recommended settings as follows: 1000 ms integration time, single measurement mode, shaking at 60 rpm for 5 s prior to measurement.
Each concentration of test compounds and controls in the assay was tested in triplicate, and the experiment was performed twice.
* The Correction Factor is the luminescence of the strain BMA64/luc with blank solvent divided by the luminescence of the control strain with the sample. Values higher than 2 are considered toxic (Leskinen et al. 2005).
* The Correction Factor is the luminescence of the strain BMA64/luc with blank solvent divided by the luminescence of the control strain with the sample. Values higher than 2 are considered toxic (Leskinen et al. 2005). […] Each experiment was performed in triplicate.

MCF-7 cells [2] = experiment: LDH cytotoxicity test; conditions: 24 h, up to 10^−4 M
Description: Cytotoxicity was assessed by lactate dehydrogenase (LDH) release. For LDH measurement, Pierce LDH Cytotoxicity Assay Kit (Thermo Scientific, Rockford, USA) was used. MCF-7 cells were seeded at 2.8×10^5 in a transparent 96-well plate, and corner cells of the plate were filled with PBS to prevent the edge effect. SF medium containing DMEM without phenol red, 1% charcoal-stripped FBS, and 4 mM L-glutamine were used for this assay. Plates were incubated for 24 h, and then the cells were treated with test compounds at concentrations ranging from 10^−14 to 10^−4 M or vehicle for another 24 h. On day 3, culture supernatant was collected in a separate 96-well plate, and the assay was continued according to the manufacturer’s instructions. Final absorbance was measured with the microplate reader at 490 and 680 nm. […] Vehicle control was 0.1% EtOH or DMSO. All the exposures were in triplicate, and the experiment was carried out twice.

MCF-7 cells [3] = experiment: MCF-7 cell proliferation assay (MTT reduction); type: cell-based, human; conditions: for EC50: Homo sapiens
Description: MCF-7 cell line which is sensitive to estrogen (ERα^+) was kindly provided by Dr. Sari Tojkander (Department of Veterinary Biosciences, Faculty of Veterinary Medicine, University of Helsinki). Cells were usually grown in T25 or T75 flasks containing DMEM with or without phenol red and supplemented with 7–10% FBS and 4 mM L-glutamine at 37°C in 5% CO2/95% humidified atmosphere. In order to eliminate the disturbing effect of hormones usually present in FBS, cell culture medium supplemented with commercially available charcoal-stripped FBS and 4 mM L-glutamine (SF medium) was used for experiments.
The effect of EEDCs on the proliferation of MCF-7 cells was assessed as previously described by measuring the capacity of the cells in each well to reduce MTT reagent (Van Meeuwen et al. [2007]). Approximately 5000 cells/200 μL of SF medium containing DMEM without phenol red, 5% charcoal-stripped FBS, and 4 mM L-glutamine were seeded per well in a 96-well cell culture plate. On day 2, cells were treated with the SF medium containing test compounds or vehicle. The final concentration of the solvents DMSO and EtOH was lower than 0.1%. On day 5, the SF medium containing test compounds or vehicle were refreshed. On day 8, cells were washed with PBS twice and then incubated with the SF medium containing 1 mg/mL MTT reagent for 1 h. The ability of MCF-7 cells to reduce MTT was measured at the reference wavelength of 595 nm using a microplate reader (Multiskan Ascent, Thermo Fisher Scientific). All the exposures were in triplicate.
The dose-response curves of test samples were plotted against logarithmic-transformed concentrations.

human ERα = target: T1, human ERα (Homo sapiens, UniProt P03372); experiment: Yeast bioluminescent assay, S. cerevisiae BMAEREluc/ERα (ERE-luc reporter); type: cell-based; conditions: negative control, Fig. 1a
T1 construct: expressed in transfected cells; host or cells: Saccharomyces cerevisiae BMAEREluc/ERα (recombinant yeast, gift of Dr. Johanna Rajasärkkä, University of Helsinki)
T1 sequence (P03372 1-595): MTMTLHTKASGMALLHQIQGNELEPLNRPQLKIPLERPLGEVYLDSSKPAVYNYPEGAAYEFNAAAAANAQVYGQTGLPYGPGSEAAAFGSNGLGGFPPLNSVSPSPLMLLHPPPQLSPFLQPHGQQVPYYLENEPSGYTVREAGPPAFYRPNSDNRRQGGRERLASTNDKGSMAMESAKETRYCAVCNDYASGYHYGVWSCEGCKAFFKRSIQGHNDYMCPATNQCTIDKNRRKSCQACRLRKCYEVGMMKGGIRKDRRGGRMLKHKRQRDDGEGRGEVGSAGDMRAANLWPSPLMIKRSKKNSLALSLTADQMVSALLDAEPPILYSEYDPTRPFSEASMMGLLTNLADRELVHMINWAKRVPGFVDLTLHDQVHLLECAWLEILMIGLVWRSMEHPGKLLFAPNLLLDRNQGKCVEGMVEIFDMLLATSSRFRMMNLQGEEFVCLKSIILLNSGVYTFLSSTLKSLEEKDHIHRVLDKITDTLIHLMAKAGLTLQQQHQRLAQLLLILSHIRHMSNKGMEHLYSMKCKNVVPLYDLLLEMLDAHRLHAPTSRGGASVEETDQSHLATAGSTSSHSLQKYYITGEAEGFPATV
Description: as §1, with “compounds. […]” for “compounds.”
as §2, with “The plate was incubated at 30°C for approximately 2.5 h, and was then shaken briefly.” left out, “measurement. […]” for “measurement.”

MCF-7 cells [4] = system: MCF-7 cells; set-up: method as in Blanquer-Rosselló et al. [2013]; conditions: 0.001–20 μM, ref Blanquer-Rosselló et al. [2013]; cited from earlier work
MCF-7 cells [5] = system: MCF-7 cells; set-up: method as in Lei et al. [2017]; conditions: 10^−4 M, 24-h incubation, LDH leakage; ref Lei et al. [2017]; cited from earlier work
[6] = MCF7, MCF-7 cells, hormone-depleted medium, MTT, read-out: EC50 (proliferative effect)

Row | Structure (SMILES) | Micronuclei per 1000 binucleated cells, Average (MCF-7 cells [1]; 10^−7 M) | Micronuclei per 1000 binucleated cells, Replicates (MCF-7 cells [1]; 10^−7 M) | Micronuclei per 1000 binucleated cells, Average (MCF-7 cells [1]; 10^−8 M) | Micronuclei per 1000 binucleated cells, Replicates (MCF-7 cells [1]; 10^−8 M) | Correction Factor (S. cerevisiae BMA64/luc; 5% DMSO, 10^−4 M) | Correction Factor (S. cerevisiae BMA64/luc; 5% DMSO, 10^−6 M) | Correction Factor (S. cerevisiae BMA64/luc; 5% DMSO, 10^−8 M) | Correction Factor (S. cerevisiae BMA64/luc; 5% DMSO, 10^−10 M) | Correction Factor (S. cerevisiae BMA64/luc; 5% DMSO, 10^−12 M) | Correction Factor (S. cerevisiae BMA64/luc; 5% DMSO, 10^−14 M) | Correction Factor (S. cerevisiae BMA64/luc; 5% ethanol, 10^−4 M) | Correction Factor (S. cerevisiae BMA64/luc; 5% ethanol, 10^−6 M) | Correction Factor (S. cerevisiae BMA64/luc; 5% ethanol, 10^−8 M) | maximum level of cytotoxicity (LDH release) (MCF-7 cells [2]) | EC50 (MCF-7 cells [3]; [6]) [nM] | Correction Factor (S. cerevisiae BMA64/luc; 5% ethanol, 10^−10 M) | Correction Factor (S. cerevisiae BMA64/luc; 5% ethanol, 10^−12 M) | Correction Factor (S. cerevisiae BMA64/luc; 5% ethanol, 10^−14 M) | efficacy (maximum induction of cell growth) compared with 17β-estradiol (MCF-7 cells [3]; MCF-7 cells, MTT) | other results
1 | C[C@]12CC[C@@H]3c4ccc(O)cc4CC[C@H]3[C@@H]1CC[C@@H]2O [17β-estradiol] | 13.33 per 1000 binucleated cells | 10 per 1000 binucleated cells and 13 per 1000 binucleated cells and 17 per 1000 binucleated cells | 13 per 1000 binucleated cells | 12 per 1000 binucleated cells and 14 per 1000 binucleated cells and 13 per 1000 binucleated cells | 3.23±0.53 | 3.42±0.81 | 2.98±0.42 | 3.11±0.47 | 2.60±0.69 | 2.59±0.23 | 1.12±0.12 | 1.08±0.05 | 1.11±0.06 | less than 2.5% | 0.21 | – | – | – | – | –
2 | O=c1c(-c2ccc(O)cc2)coc2cc(O)cc(O)c12 [genistein] | – | – | – | – | 3.19±0.42 | 2.59±0.95 | 3.59±1.22 | 2.20±0.05 | 2.59±0.45 | 3.88±1.32 | 1.59±0.17 | 1.27±0.42 | 1.18±0.24 | less than 2.5% | – | 1.07±0.04 | 1.30±0.22 | 1.58±0.23 | about half | EC50 (MCF-7 cells [3]; MCF7, read-out: EC50 (proliferative effect)): 831 nM
3 | CC/C(=C(\c1ccccc1)c1ccc(OCCN(C)C)cc1)c1ccccc1 [tamoxifen] | – | – | – | – | 2.87±0.04 | 2.30±0.14 | 2.54±0.17 | 2.47±0.30 | 2.51±0.21 | 2.40±0.09 | 1.35±0.25 | 1.21±0.32 | 1.50±0.27 | – | – | 1.28±0.25 | 1.23±0.16 | 1.39±0.31 | – | dose-response of proliferation (MCF-7 cells [3]; in the presence of 10^−12 M of 17β-estradiol, Fig. 2b): inverse dose-response curve
4 | CC(=O)[C@H]1CC[C@H]2[C@@H]3CCC4=CC(=O)CC[C@]4(C)[C@H]3CC[C@]12C [progesterone] | – | – | – | – | – | – | – | – | – | – | – | – | – | – | – | – | – | – | – | luciferase activity (estrogenic response) (human ERα): did not produce any detectable luciferase activity
5 | CC(C)=CCc1c(O)cc(O)c2c1O[C@H](c1ccc(O)cc1)CC2=O [8-PN, 8-prenylnaringenine] | 22.33 per 1000 binucleated cells | 24 per 1000 binucleated cells and 20 per 1000 binucleated cells and 23 per 1000 binucleated cells | 18.67 per 1000 binucleated cells | 16 per 1000 binucleated cells and 19 per 1000 binucleated cells and 21 per 1000 binucleated cells | 3.27±0.64 | 3.31±0.92 | 2.62±0.30 | 2.02±0.15 | 2.32±0.56 | 2.09±0.35 | 1.05±0.21 | 0.94±0.14 | 0.97±0.04 | less than 2.5% | 4.98 | 1.03±0.16 | 0.92±0.14 | 0.98±0.12 | about half | mitochondrial function and ROS production (MCF-7 cells [4]): improved mitochondrial function and decreased ROS production
6 | CC(C)(c1ccc(O)cc1)c1ccc(O)cc1 [BPA, bisphenol A] | – | – | – | – | – | – | – | – | – | – | – | – | – | – | – | – | – | – | – | increase of MCF-7-cell mortality (MCF-7 cells [5]): more than 80%
